Some results are limits rather than exact numbers.

For 56 molecules, IC50 results are on record in US12281102B2, “Inhibitors of APOL1 and methods of using same” (Vertex Pharmaceuticals Incorporated, priority 2020, dated 2025).

The target of one assay is T1, G1 APOL1 (Homo sapiens, UniProt O14791, I384M/S342G).
T1 construct: expressed in transfected cells
T1 sequence (O14791 28-398 S342G/I384M): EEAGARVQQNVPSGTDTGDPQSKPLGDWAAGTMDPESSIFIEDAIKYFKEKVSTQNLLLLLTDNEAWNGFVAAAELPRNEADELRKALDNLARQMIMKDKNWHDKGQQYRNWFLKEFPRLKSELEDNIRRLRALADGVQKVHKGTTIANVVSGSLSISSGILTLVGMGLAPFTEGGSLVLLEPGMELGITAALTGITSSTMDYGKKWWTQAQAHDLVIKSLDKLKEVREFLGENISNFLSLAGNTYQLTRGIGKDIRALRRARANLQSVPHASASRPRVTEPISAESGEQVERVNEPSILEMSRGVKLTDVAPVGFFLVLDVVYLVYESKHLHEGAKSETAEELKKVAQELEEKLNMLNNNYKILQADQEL
Kind of assay: Acute APOL1 Thallium Assay with inducible stable clones of HEK 293 cells. The class given is cell-based. The following applies: HEK 293 T-Rex inducible stable clone expressing G1 APOL1; read-out: Thallium Assay (IC50). Summed up: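 A tetracycline-inducible HEK293 T-Rex clone (G1 DC3.25) expressing G1 APOL1 was plated at 26,000 cells/well, with tetracycline added at plating to induce expression. Cells were loaded with an AM-ester thallium-sensitive dye and stimulated with Tl+. Pore activity was read as the FLIPR Tetra fluorescence increase from Tl+ influx.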
Take `Cc1nc[nH]c1C(=O)NC1CC(Cc2c(-c3ccc(F)cc3)[nH]c3c(F)cc(F)cc23)C1` (centres unmarked) [Compound 162]: the IC50 – broadly, the concentration that gives 50% inhibition – fell in the range of 250 to 1000 nM.
As to `O=C1NCCC1C(=O)NC1CC(Cc2c(-c3ccc(F)cc3)[nH]c3c(F)cc(F)cc23)C1` (centres unmarked) [Compound 163], the IC50 was more than 1000 nM.
Same read-out and setting: for `O=C1CC(CC(=O)NC2CC(Cc3c(-c4ccc(F)cc4)[nH]c4c(F)cc(F)cc34)C2)C(=O)N1` (centres unmarked) [Compound 164] the value was more than 1000 nM; for `NC(=O)CC(=O)NC1CC(Cc2c(-c3ccc(F)cc3)[nH]c3c(F)cc(F)cc23)C1` (centres unmarked) [Compound 165], more than 1000 nM.
Regarding `O=C(NC1CC(Cc2c(-c3ccc(F)cc3)[nH]c3c(F)cc(F)cc23)C1)c1ccn[nH]1` (centres unmarked) [Compound 166], the half-maximal inhibitory concentration (IC50) is more than 1000 nM.
Still for that read-out and setting: in the case of `O=C1CC(C(=O)NC2CC(Cc3c(-c4ccc(F)cc4)[nH]c4c(F)cc(F)cc34)C2)C(=O)N1` (centres unmarked) [Compound 167] it was more than 1000 nM; in that of `O=C(CC1NC(=O)NC1=O)NC1CC(Cc2c(-c3ccc(F)cc3)[nH]c3c(F)cc(F)cc23)C1` (centres unmarked) [Compound 168], more than 1000 nM; in that of `Cc1cc[nH]c1C(=O)NC1CC(Cc2c(-c3ccc(F)cc3)[nH]c3c(F)cc(F)cc23)C1` (centres unmarked) [Compound 171], more than 1000 nM.
`Cc1ccc(C(=O)NC2CC(Cc3c(-c4ccc(F)cc4)[nH]c4c(F)cc(F)cc34)C2)[nH]1` (centres unmarked) [Compound 172]: the IC50 was more than 1000 nM.
Regarding `O[C@H]1C[C@@H](c2c(-c3ccc(F)cc3)[nH]c3c(F)cc(F)cc32)C1` [Compound 175, (1s,3s)-3-(5,7-difluoro-2-(4-fluorophenyl)-1H-indol-3-yl)cyclobutan-1-ol], the IC50 lay in the range of 250 to 1000 nM.
Same read-out and setting: for `NCC1CC(c2c(-c3ccc(C4CC4)cc3)[nH]c3ccc(F)cc23)C1` (centres unmarked) [Compound 177] the value was more than 1000 nM; for `NCC1CC(c2c(-c3ccc(F)cc3)[nH]c3c(F)cc(C(F)(F)F)cc23)C1` (centres unmarked) [Compound 178], 250 to 1000 nM; for `Cc1cc(-c2[nH]c3c(F)cc(F)cc3c2C2CC(CN)C2)ccc1F` (centres unmarked) [Compound 179], less than 250 nM.
On the same count and under the same terms, in the case of `C[C@H](N)C(=O)NC[C@H]1C[C@H](c2c(-c3ccc(F)cc3)[nH]c3c(F)cc(F)cc32)C1` [Compound 189, (S)-2-amino-N-(((1r,3S)-3-(5,7-difluoro-2-(4-fluorophenyl)-1H-indol-3-yl)cyclobutyl)methyl)propanamide] it was less than 250 nM; in that of `NCC(=O)NC[C@H]1C[C@@H](c2c(-c3ccc(F)cc3)[nH]c3c(F)cc(F)cc32)C1` [Compound 190], less than 250 nM.
In the case of `NCC(=O)NC[C@H]1C[C@H](c2c(-c3ccc(F)cc3)[nH]c3c(F)cc(F)cc32)C1` [Compound 191], the IC50 is less than 250 nM.
For the molecule `O=C(NC[C@H]1C[C@H](c2c(-c3ccc(F)cc3)[nH]c3c(F)cc(F)cc32)C1)C1CCO1` (some centres unmarked) [Compound 192], the IC50 is less than 250 nM.
As for `CC(C)(C)OC(=O)N[C@@H](CO)C(=O)NC[C@H]1C[C@H](c2c(-c3ccc(F)cc3)[nH]c3c(F)cc(F)cc32)C1` [Compound 193], the IC50 was less than 250 nM.
The same measure, in the same setting: in the case of `N[C@@H](CO)C(=O)NC[C@H]1C[C@H](c2c(-c3ccc(F)cc3)[nH]c3c(F)cc(F)cc32)C1` [Compound 194] it was less than 250 nM; in that of `CC(=O)NC[C@H]1C[C@H](c2c(-c3ccc(F)cc3)[nH]c3c(F)cc(F)cc32)C1` [Compound 195], less than 250 nM.
As to `N[C@H](C(=O)NC[C@H]1C[C@H](c2c(-c3ccc(F)cc3)[nH]c3c(F)cc(F)cc32)C1)C1CC1` [Compound 196], the IC50 was less than 250 nM.
For `CC[C@H](N)C(=O)NC[C@H]1C[C@H](c2c(-c3ccc(F)cc3)[nH]c3c(F)cc(F)cc32)C1` [Compound 197], the IC50 was less than 250 nM.
`O=C(NC[C@H]1C[C@H](c2c(-c3ccc(F)cc3)[nH]c3c(F)cc(F)cc32)C1)[C@@H]1CCN1` [Compound 198]: the IC50 is less than 250 nM.
For `O=C(NC[C@H]1C[C@H](c2c(-c3ccc(F)cc3)[nH]c3c(F)cc(F)cc32)C1)[C@@H]1CCCN1` [Compound 199], the IC50 is less than 250 nM.
The same measure, in the same setting: for `O=C(NC[C@H]1C[C@H](c2c(-c3ccc(F)cc3)[nH]c3c(F)cc(F)cc32)C1)C(F)F` [Compound 200] the value was less than 250 nM; for `N[C@H](CO)C(=O)NC[C@H]1C[C@H](c2c(-c3ccc(F)cc3)[nH]c3c(F)cc(F)cc32)C1` [Compound 201], less than 250 nM.
On the same count and under the same terms, in the case of `O=C(NC[C@H]1C[C@H](c2c(-c3ccc(F)cc3)[nH]c3c(F)cc(F)cc32)C1)C1COC1` [Compound 202] it was less than 250 nM; in that of `O=C(CO)NC[C@H]1C[C@H](c2c(-c3ccc(F)cc3)[nH]c3c(F)cc(F)cc32)C1` [Compound 203], less than 250 nM.
Consider `CC(=O)N[C@H](C)C(=O)NC[C@H]1C[C@H](c2c(-c3ccc(F)cc3)[nH]c3c(F)cc(F)cc32)C1` [Compound 204], for which the IC50 is less than 250 nM.
On to `O=C(NC[C@H]1C[C@H](c2c(-c3ccc(F)cc3)[nH]c3c(F)cc(F)cc32)C1)[C@@H]1C[C@@H](F)CN1` [Compound 205], for which the IC50 is less than 250 nM.
Still for that read-out and setting: in the case of `O=C(CCO)NC[C@H]1C[C@@H](c2c(-c3ccc(F)cc3)[nH]c3c(F)cc(F)cc32)C1` [Compound 206] it was 250 to 1000 nM; in that of `C[C@H](O)C(=O)NC[C@H]1C[C@H](c2c(-c3ccc(F)cc3)[nH]c3c(F)cc(F)cc32)C1` [Compound 207], 250 to 1000 nM.
`CC(=O)N[C@@H](C)C(=O)NC[C@H]1C[C@H](c2c(-c3ccc(F)cc3)[nH]c3c(F)cc(F)cc32)C1` [Compound 208]: the IC50 lay within 250 to 1000 nM.
On to `COCCC(=O)NC[C@H]1C[C@@H](c2c(-c3ccc(F)cc3)[nH]c3c(F)cc(F)cc32)C1` [Compound 209], for which the IC50 lay in the range of 250 to 1000 nM.
Consider `O=C(CO)NC[C@H]1C[C@@H](c2c(-c3ccc(F)cc3)[nH]c3c(F)cc(F)cc32)C1` [Compound 210], for which the concentration for half-maximal inhibition (IC50) is 250 to 1000 nM.
Regarding `C[C@@H](O)C(=O)NC[C@H]1C[C@H](c2c(-c3ccc(F)cc3)[nH]c3c(F)cc(F)cc32)C1` [Compound 211], the IC50 was 250 to 1000 nM.
On the same count and under the same terms, for `CC(C)(C)OC(=O)NCC(=O)NC[C@H]1C[C@@H](c2c(-c3ccc(F)cc3)[nH]c3c(F)cc(F)cc32)C1` [Compound 212] the value was 250 to 1000 nM; for `C[C@H](O)C(=O)NC[C@H]1C[C@@H](c2c(-c3ccc(F)cc3)[nH]c3c(F)cc(F)cc32)C1` [Compound 213], 250 to 1000 nM.
For the molecule `CC(C)(C)OC(=O)NCC(=O)NC[C@H]1C[C@H](c2c(-c3ccc(F)cc3)[nH]c3c(F)cc(F)cc32)C1` [Compound 215], the IC50 was 250 to 1000 nM.
On the same count and under the same terms, in the case of `O=C1C[C@@H](C(=O)NC[C@H]2C[C@H](c3c(-c4ccc(F)cc4)[nH]c4c(F)cc(F)cc43)C2)N1` [Compound 218] it was 250 to 1000 nM.
As for `O=C(NC[C@H]1C[C@@H](c2c(-c3ccc(F)cc3)[nH]c3c(F)cc(F)cc32)C1)C(F)F` [Compound 219], the IC50 lay in the range of 250 to 1000 nM.
With `O=C(NC[C@H]1C[C@@H](c2c(-c3ccc(F)cc3)[nH]c3c(F)cc(F)cc32)C1)C1CCO1` (some centres unmarked) [Compound 220], the IC50 lay in the range of 250 to 1000 nM.
Turning to `O=C(NC[C@H]1C[C@H](c2c(-c3ccc(F)cc3)[nH]c3c(F)cc(F)cc32)C1)C1(O)COC1` [Compound 221], the IC50 lay in the range of 250 to 1000 nM.
Still for that read-out and setting: for `O=C(NC[C@H]1C[C@H](c2c(-c3ccc(F)cc3)[nH]c3c(F)cc(F)cc32)C1)[C@H]1NCC[C@@H]1O` [Compound 222] the value was 250 to 1000 nM.
On to `O=C(NC[C@H]1C[C@H](c2c(-c3ccc(F)cc3)[nH]c3c(F)cc(F)cc32)C1)C1CC(F)(F)CN1` (some centres unmarked) [Compound 223], for which the IC50 is 250 to 1000 nM.
Take `CC(=O)N[C@@H](CO)C(=O)NC[C@H]1C[C@H](c2c(-c3ccc(F)cc3)[nH]c3c(F)cc(F)cc32)C1` [Compound 224]: the IC50 lay in the range of 250 to 1000 nM.
Consider `O=C(NC[C@H]1C[C@H](c2c(-c3ccc(F)cc3)[nH]c3c(F)cc(F)cc32)C1)[C@@H]1C[C@@H](O)CN1` [Compound 225], for which the IC50 lay within 250 to 1000 nM.
Still for that read-out and setting: in the case of `O=C(NC[C@H]1C[C@@H](c2c(-c3ccc(F)cc3)[nH]c3c(F)cc(F)cc32)C1)C1COC1` [Compound 226] it was 250 to 1000 nM.
For the molecule `C[C@H](NC(=O)OC(C)(C)C)C(=O)NC[C@H]1C[C@H](c2c(-c3ccc(F)cc3)[nH]c3c(F)cc(F)cc32)C1` [Compound 227], the IC50 was more than 1000 nM.
On the same count and under the same terms, in the case of `O=C(NC[C@H]1C[C@H](c2c(-c3ccc(F)cc3)[nH]c3c(F)cc(F)cc32)C1)[C@H]1NCC[C@H]1O` [Compound 229] it was more than 1000 nM; in that of `N#CCC(=O)NC[C@H]1C[C@@H](c2c(-c3ccc(F)cc3)[nH]c3c(F)cc(F)cc32)C1` [Compound 230], more than 1000 nM.
On to `O=C(CC1CS(=O)(=O)C1)NC[C@H]1C[C@@H](c2c(-c3ccc(F)cc3)[nH]c3c(F)cc(F)cc32)C1` [Compound 231], for which the IC50 was more than 1000 nM.
For the molecule `NS(=O)(=O)CCC(=O)NC[C@H]1C[C@@H](c2c(-c3ccc(F)cc3)[nH]c3c(F)cc(F)cc32)C1` [Compound 232], the IC50 is more than 1000 nM.
Still for that read-out and setting: for `NC(C(=O)NC[C@H]1C[C@H](c2c(-c3ccc(F)cc3)[nH]c3c(F)cc(F)cc32)C1)C(F)(F)F` (some centres unmarked) [Compound 233] the value was more than 1000 nM.

The same assay, now with this note: Thallium Assay (IC50), HEK 293 T-Rex inducible stable clone expressing G1 APOL1.
Consider `CC(C)(C)OC(=O)N1CC[C@H]1C(=O)NC[C@H]1C[C@H](c2c(-c3ccc(F)cc3)[nH]c3c(F)cc(F)cc32)C1` [Compound 216], for which the IC50 lay within 250 to 1000 nM.
Consider `CC(C)(C)OC(=O)N1CCC[C@H]1C(=O)NC[C@H]1C[C@H](c2c(-c3ccc(F)cc3)[nH]c3c(F)cc(F)cc32)C1` [Compound 217], for which the IC50 lay in the range of 250 to 1000 nM.
